{
  "source": "patent US20180016593A1",
  "about": "“HERBICIDE-RESISTANT SUNFLOWER PLANTS, POLYNUCLEOTIDES ENCODING HERBICIDE-RESISTANT ACETOHYDROXYACID SYNTHASE LARGE SUBUNIT PROTEINS, AND METHODS OF USE” (priority 2005, published 2018)",
  "key": {"[1]": {"tested_on": "conventional non-Clearfield variety", "experiment": "Greenhouse spray injury rating (Example 5)", "type": "in vivo", "conditions": "in vivo", "description": "(§1) Methods: Sunflower lines S4897, Clearfield® sunflower varieties A, B, C and a conventional non-Clearfield variety were sprayed with three rates of imazamox (Raptor™), 100, 200 and 300 gm ai/ha plus 0.5% Sun It II and two rates of imazapyr (Arsenal™) 160 and 360 gm ai/ha plus 0.5% Sun It II when the plants were at the two to three leaf stage. Ratings were taken at 14 days after application (DAT) for injury. Injury was rated on a scale from 0 to 9 where […] to 9=dead plant. Twelve plants were sprayed per herbicide/rate treatment. Statistical analysis was conducted with STATGRAPHICS Plus 5.0 by using ANOVA and LSD procedures.\n(§2) Results: After plants were sprayed, it was realized that a height difference between S4897 and other sunflower varieties would have impacted the actual herbicide dose that was delivered. The spray boom height had been calibrated against S4897 and since the other varieties were taller and closer to the boom they would have received a greater dose of herbicide. Rates were recalibrated for the other varieties to determine the approximate dose they would have received. Assessments were made as presented in Table 2 since it was not possible to make a direct rate comparison due to the effect of the height. For example injury scores were compare for S4897 treated imazamox rate 100 gm ai/ha to the other varieties treated at 75 gm ai/ha. The treatment dose of 300 gm ai/ha for line S4897 was equivalent to the treatment of 200 gm ai/ha for the other varieties, which approximately was 300 gm ai/ha."}, "[2]": {"tested_on": "Clearfield sunflower variety B", "experiment": "Greenhouse spray injury rating (Example 5)", "type": "in vivo", "conditions": "in vivo", "description": "as §1, §2"}, "[3]": {"tested_on": "Clearfield sunflower variety C", "experiment": "Greenhouse spray injury rating (Example 5)", "type": "in vivo", "conditions": "in vivo", "description": "as §1, §2"}, "[4]": {"tested_on": "Clearfield sunflower variety A", "experiment": "Greenhouse spray injury rating (Example 5)", "type": "in vivo", "conditions": "in vivo", "description": "as §1, §2"}, "[5]": {"tested_on": "sunflower TH9 (Hybrid, A205V)", "type": "in vivo, Helianthus annuus", "conditions": "14 DAT"}},
  "note": "Like-named read-outs stand apart in the source and are kept apart here.",
  "data": [
    {"smiles": "CC(C)C1(C)N=C(c2ncccc2C(=O)O)NC1=O", "note": "(centres unmarked) [imazapyr]", "values": [
      {"measurement": "Injury (scale 0 to 9)", "setting": "[1]", "value": 8.2, "unit": "days"},
      {"measurement": "Injury (scale 0 to 9)", "setting": "[2]", "value": 4.3, "unit": "b"},
      {"measurement": "Injury (scale 0 to 9)", "setting": "[3]", "value": 4.9, "unit": "c"},
      {"measurement": "Injury (scale 0 to 9)", "setting": "[4]", "value": 5.0, "unit": "c"},
      {"measurement": "Phytotoxicity Index", "setting": "[5]; 0.5x (40 g ai/ha)", "value": 0},
      {"measurement": "biomass accumulation (above ground dry weight)", "setting": "[5]; 0.5x (40 g ai/ha)", "value": "91.7 % of untreated plots"},
      {"measurement": "plant height", "setting": "[5]; 0.5x (40 g ai/ha)", "value": "100.0 % of untreated plots"},
      {"measurement": "root dry weight", "setting": "[5]; 0.5x (40 g ai/ha)", "value": "81.5 % of untreated plots"},
      {"measurement": "Phytotoxicity Index", "setting": "[5]; 1x (80 g ai/ha)", "value": 0},
      {"measurement": "biomass accumulation (above ground dry weight)", "setting": "[5]; 1x (80 g ai/ha)", "value": "81.7 % of untreated plots"},
      {"measurement": "plant height", "setting": "[5]; 1x (80 g ai/ha)", "value": "100.0 % of untreated plots"},
      {"measurement": "root dry weight", "setting": "[5]; 1x (80 g ai/ha)", "value": "84.9 % of untreated plots"},
      {"measurement": "Phytotoxicity Index", "setting": "[5]; 2x (160 g ai/ha)", "value": 1.6},
      {"measurement": "biomass accumulation (above ground dry weight)", "setting": "[5]; 2x (160 g ai/ha)", "value": "54.7 % of untreated plots"},
      {"measurement": "plant height", "setting": "[5]; 2x (160 g ai/ha)", "value": "78.9 % of untreated plots"},
      {"measurement": "root dry weight", "setting": "[5]; 2x (160 g ai/ha)", "value": "58.8 % of untreated plots"},
      {"measurement": "Phytotoxicity Index", "setting": "[5]; 3x (240 g ai/ha)", "value": 5.1},
      {"measurement": "biomass accumulation (above ground dry weight)", "setting": "[5]; 3x (240 g ai/ha)", "value": "35.7 % of untreated plots"},
      {"measurement": "plant height", "setting": "[5]; 3x (240 g ai/ha)", "value": "50.0 % of untreated plots"},
      {"measurement": "root dry weight", "setting": "[5]; 3x (240 g ai/ha)", "value": "34.1 % of untreated plots"},
      {"measurement": "Phytotoxicity Index", "setting": "[5]; 4x (320 g ai/ha)", "value": 8.4},
      {"measurement": "biomass accumulation (above ground dry weight)", "setting": "[5]; 4x (320 g ai/ha)", "value": "25.3 % of untreated plots"},
      {"measurement": "plant height", "setting": "[5]; 4x (320 g ai/ha)", "value": "38.1 % of untreated plots"},
      {"measurement": "root dry weight", "setting": "[5]; 4x (320 g ai/ha)", "value": "27.3 % of untreated plots"},
      {"measurement": "Phytotoxicity Index", "setting": "[5]; 5x (400 g ai/ha)", "value": 8.9},
      {"measurement": "biomass accumulation (above ground dry weight)", "setting": "[5]; 5x (400 g ai/ha)", "value": "19.8 % of untreated plots"},
      {"measurement": "plant height", "setting": "[5]; 5x (400 g ai/ha)", "value": "31.8 % of untreated plots"},
      {"measurement": "root dry weight", "setting": "[5]; 5x (400 g ai/ha)", "value": "29.9 % of untreated plots"},
      {"measurement": "Phytotoxicity Index", "setting": "[5]; 6x (480 g ai/ha)", "value": 8.9},
      {"measurement": "biomass accumulation (above ground dry weight)", "setting": "[5]; 6x (480 g ai/ha)", "value": "19.5 % of untreated plots"},
      {"measurement": "plant height", "setting": "[5]; 6x (480 g ai/ha)", "value": "34.7 % of untreated plots"},
      {"measurement": "root dry weight", "setting": "[5]; 6x (480 g ai/ha)", "value": "22.1 % of untreated plots"}
    ]}
  ]
}
